Drawing on US20260115187A1, “TRICYCLIC SKELETON COMPOUND AND USE THEREOF IN PREPARATION OF ANTITUMOR DRUG” (ZHONGSHAN HOSPITAL, FUDAN UNIVERSITY, priority 2024, published 2026), this text covers IC50 for 31 compounds.

Where two headings read alike, the source gives them in different places.

For assay [1], the system named is MHCC97H KSR2 OE (97H cells overexpressing KSR2). The assay can be described thus: Cell IC50 assay (CCK8 cell viability), MHCC97H KSR2 OE. As to conditions: Homo sapiens. In kind it is cell-based. As for the experimental part: (§1) (1) Cell Preparation: Hepatoma cells (PLC/PRF/5, sourced from the Chinese Academy of Sciences; MHCC97H, sourced from this research institute) in good growth condition are prepared. The cells are trypsinized, diluted, and seeded into 96-well cell culture plates. 1,000-3,000 cells are added per well. The plates are then placed in a cell culture incubator at 37° C. with 5% CO2. Drugs are added after the cells have adhered for 24 h.
(§2) (2) Drug Addition: The drugs are subjected to gradient dilution, typically setting 9 concentrations. Control groups containing no drug medium and medium containing only the drug solvent are also set up. The diluted drugs are added to the cell culture plates seeded the previous day. The plates are incubated for 72 h.
(§3) (3) CCK8 Assay for Cell Viability: CCK8 is mixed with culture medium at a 1:10 ratio. 100 μL of this mixture is added to each well of the cell culture plate. After incubating for 2-4 h, the OD values are measured using a microplate reader.
(§4) (4) Data Analysis: Based on the corresponding OD values, the data are compiled, IC50 curves are plotted, and the IC50 values are obtained.
(§5) (5) IC50 Verification: The theoretical IC50 value is identified from the IC50 curve. Drug concentrations at ½ times, 1 time, and 2 times this theoretical value are used for verification.

Assay [2] has as its system PLC/PRF/5 KSR2 OE (PLC cells overexpressing KSR2). The assay can be described thus: Cell IC50 assay (CCK8 cell viability), PLC/PRF/5 KSR2 OE. In kind it is cell-based. As to conditions: Homo sapiens, read-out: IC50 value of cell viability, PLC/PRF/5 KSR2 OE (PLC cells overexpressing KSR2). The method, then:
as §1, §2, §3, §4, §5

The mark [3] stands for this setting: hepatoma cells, 72 h incubation, CCK8, read-out: IC50 value of cell viability, MHCC97H KSR2 OE (97H cells overexpressing KSR2).
The mark [4] stands for this setting: PLC-PRF-5, hepatoma cells, 72 h incubation, CCK8.
The mark [5] stands for this setting: read-out: IC50 value of cell viability, MHCC97H KSR2 OE (97H cells overexpressing KSR2).

For the compound `COc1ccc(N2CCN(CCCNC(=O)c3nn(C)c4c3CSc3ccccc3-4)CC2)cc1` [Compound 27], the IC50 was determined as 13 µM in assay [1] (setting [3]) and 31 µM in assay [2] (setting [4]).

As to `Cn1nc(C(=O)NCCCN2CCN(CC3CC3)CC2)c2c1-c1ccccc1SC2` [Compound 5], the IC50 is 44 µM in assay [1] (setting [5]) and 25 µM in assay [2] (PLC-PRF-5, 72 h).

Regarding `Cn1nc(C(=O)NCCCN2CCN(c3cccc(Cl)c3)CC2)c2c1-c1ccccc1SC2` [Compound 24], the IC50 in assay [1] (setting [3]) is 39 µM; in assay [2] (setting [4]) it was 18 µM.

In the case of `Cn1nc(C(=O)NCCCN2CCN(c3ccc(C(F)(F)F)cc3)CC2)c2c1-c1ccccc1SC2` [Compound 26], the IC50 is more than 100 µM in assay [1] (setting [3]) and 14 µM in assay [2] (setting [4]).

Regarding `CN1CCN(C2CN(CCCNC(=O)c3n[nH]c4c3COc3cc(Cl)ccc3-4)C2)CC1` [Compound 126], the IC50 in assay [1] (setting [3]) stood at 7 µM; in assay [2] (setting [4]), 9 µM.

As for `Cc1ccc2c(c1)OCc1c(C(=O)NCCCN3CC(N4CCN(C)CC4)C3)nn(C)c1-2` [Compound 121], the IC50 worked out at 20 µM in assay [1] (setting [3]) and 18 µM in assay [2] (setting [4]).

Regarding `CN1CCN(C2CCN(CCCNC(=O)c3nn(C)c4c3COc3cc(Cl)ccc3-4)CC2)CC1` [Compound 68], the IC50 in assay [1] (setting [3]) worked out at 2 µM; in assay [2] (setting [4]), 0.7 µM.

`Cn1nc(C(=O)NCCCN2CCC(N3CCCCC3)CC2)c2c1-c1ccccc1SC2` [Compound 13]: the IC50 in assay [1] (setting [3]) and in assay [2] (setting [4]) was 2 µM each time.

Consider `CCN1CCN(C2CN(C3CC(CNC(=O)c4nn(C)c5c4CSc4cc(Cl)ccc4-5)C3)C2)CC1` (centres unmarked) [Compound 111], for which the IC50 in assay [1] (setting [3]) worked out at 9 µM; in assay [2] (setting [4]) it was 6 µM.

For the compound `CN1CCN(C2CN(C3CC(CNC(=O)c4nn(C)c5c4COc4cc(Cl)ccc4-5)C3)C2)CC1` (centres unmarked) [Compound 99], the IC50 in assay [1] (setting [3]) is 17 µM; in assay [2] (setting [4]) it was 9 µM.

In the case of `Cn1nc(C(=O)NCCCN2CCN(C3CCC(F)(F)CC3)CC2)c2c1-c1ccccc1SC2` [Compound 1], the IC50 in assay [1] (setting [5]) amounted to 41 µM; in assay [2] (PLC-PRF-5, 72 h), 45 µM.

Consider `Cn1nc(C(=O)NCCCN2CCN(c3cccnc3)CC2)c2c1-c1ccccc1SC2` [Compound 20], for which the IC50 in assay [1] (setting [3]) was determined as 32 µM; in assay [2] (setting [4]) it was 29 µM.

`Cn1nc(C(=O)NCCCN2CCC(N3CCN(CC4CC4)CC3)CC2)c2c1-c1ccccc1SC2` [Compound 64]: the IC50 is 6 µM in assay [1] (setting [3]) and 5 µM in assay [2] (setting [4]).

Turning to `CCN1CCN(C2CN(CCCNC(=O)c3nn(C)c4c3CSc3cc(Cl)ccc3-4)C2)CC1` [Compound 109], the IC50 turned out to be 10 µM in assay [1] (setting [3]) and 7 µM in assay [2] (setting [4]).

Consider `CN1CCN(C2CN(CCCNC(=O)c3nn(C)c4c3COc3cc(Cl)ccc3-4)C2)CC1` [Compound 86], for which the IC50 in assay [1] (setting [3]) and in assay [2] (setting [4]) was 6 µM throughout.

On to `CN1CCN(C2CCN(CCCNC(=O)c3c4c(nn3C3COC3)-c3ccccc3SC4)CC2)CC1` [Compound 89], for which the IC50 in assay [1] (setting [3]) amounted to 32 µM; in assay [2] (setting [4]) it was 15 µM.

As to `CN1CCN(C2CCN(CCCNC(=O)c3nn(C)c4c3CSc3ccccc3-4)CC2)CC1` [Compound 30], the IC50 turned out to be 6 µM in assay [1] (setting [3]) and 9 µM in assay [2] (setting [4]).

As to `Cn1nc(C(=O)NCCCN2CCC(N3CCCC3)CC2)c2c1-c1ccccc1SC2` [Compound 38], the IC50 was 4 µM in assay [1] (setting [3]) and 3 µM in assay [2] (setting [4]).

Turning to `Cn1nc(C(=O)NCCCN2CCN(C3CCCCC3)CC2)c2c1-c1ccccc1SC2` [Compound 8], the IC50 in assay [1] (setting [5]) amounted to 62 µM; in assay [2] (PLC-PRF-5, 72 h) it was 61 µM.

For the compound `CN(CCCN1CCN(C2CCCCC2)CC1)C(=O)c1nn(C)c2c1CSc1ccccc1-2` [Compound 12], the IC50 in assay [1] (setting [3]) came out at 86 µM; in assay [2] (setting [4]) it was 56 µM.

Turning to `CN1CCN(C2CCN(CCCNC(=O)c3nn(C)c4c3COc3ccc(Cl)cc3-4)CC2)CC1` [Compound 69], the IC50 in assay [1] (setting [3]) stood at 5 µM; in assay [2] (setting [4]), 0.6 µM.

Consider `CN1CCN(C2CCN(CCCNC(=O)c3nn(C)c4c3COc3cc(-c5cnn(C)c5)ccc3-4)CC2)CC1` [Compound 95], for which the IC50 in assay [1] (setting [3]) and in assay [2] (setting [4]) was 2 µM throughout.

For the compound `Cn1nc(C(=O)NCCCN2CCC(N3CCNCC3)CC2)c2c1-c1ccccc1SC2` [Compound 41], the IC50 in assay [1] (setting [3]) was 7 µM; in assay [2] (setting [4]) it was 8 µM.

As for `Cn1nc(C(=O)NCCCN2CCN(C3CCC3)CC2)c2c1-c1ccccc1SC2` [Compound 6], the IC50 in assay [1] (setting [5]) amounted to 70 µM; in assay [2] (PLC-PRF-5, 72 h), 42 µM.

In the case of `CN1CCN(C2CCN(CCCNC(=O)c3c4c(nn3C)-c3ccc(-n5nccn5)cc3OC4)CC2)CC1` [Compound 124], the IC50 stood at 5 µM in assay [1] (setting [3]) and 2 µM in assay [2] (setting [4]).

As for `CN(C)CC1CCN(CCCNC(=O)c2nn(C)c3c2CSc2ccccc2-3)C1` (centres unmarked) [Compound 53], the IC50 in assay [1] (setting [3]) was determined as 63 µM; in assay [2] (setting [4]) it was 92 µM.

With `CN1CCN(C2CCN(CCCNC(=O)c3c4c(nn3C)-c3cc(Br)c(Cl)cc3OC4)CC2)CC1` [Compound 102], the IC50 in assay [1] (setting [3]) and in assay [2] (setting [4]) was 1 µM each time.

Turning to `CCN1CCN(C2CN(CCCNC(=O)c3nn(C)c4c3CSc3ccccc3-4)C2)CC1` [Compound 81], the figures for the IC50 in assay [1] (setting [3]) and in assay [2] (setting [4]) were 11 µM and 26 µM, respectively.

Turning to `CN1CCN(C2CCN(CCCNC(=O)c3nn(C)c4c3COc3ccccc3-4)CC2)CC1` [Compound 50], the IC50 was 6 µM in assay [1] (setting [3]) and 7 µM in assay [2] (setting [4]).

For `CN1CCN(C2CCN(CCCNC(=O)c3nn(C)c4c3COc3cc(F)ccc3-4)CC2)CC1` [Compound 71], the IC50 in assay [1] (setting [3]) is 5 µM; in assay [2] (setting [4]), 8 µM.

On to `CN1CCN(C2CCN(C3CC(CNC(=O)c4nn(C)c5c4CSc4ccccc4-5)C3)CC2)CC1` (centres unmarked) [Compound 78], for which the figures for the IC50 in assay [1] (setting [3]) and in assay [2] (setting [4]) were 6 µM and 12 µM, respectively.
